Source: patent publication US6559280B2, “Controlling protein levels in eucaryotic organisms” (Proteinix, Inc., priority 1999, dated 2003)
Non-standard residues stand in square brackets, D forms with d. No end group written: not given here. Ahx = NCCCCCC(=O)O

Key:
[1] = system: [125I]-lysozyme degradation in the reticulocyte lysate; assay: inhibition of [125I]-lysozyme degradation in reticulocyte lysate by ubiquitination recognition elements; assay type: biochemical, rabbit; settings: for lysozyme degradation, result at the 2 hour time point: no treatment 12,475 cpm
Method: Proteins were labeled by Lofstrand Laboratories Ltd. (Gaithersburg, Md.) Labeled to […] by oxidation of Na^125I using an iodobead chloramine-T procedure. The ubiquitin-dependent protein degradation assay was preformed by the addition of 70 μL of rabbit reticulocyte lysate and 5 uL of 0.06 μCi/μL ^25I-labeled protein to […] of reaction buffer containing 40 mM Tris pH 7.6, 2 mM DTT, 5 mM MgCl2, 0.5 mM ATP, 35 μg creatine phosphokinase (Sigma) and 10 mM phosphocreatine. The reaction were run at 37 C. in a heating block, and at time points 30 μL of the reaction was transferred to 50 μl of cold 100 mg/mL BSA and protein was precipitated by the addition of 420 μL of 23% TCA followed by 15 min on ice. The precipitated samples were microfuged for 2 min at 5000 rpm and 300 μL of supernatant was then counted for TCA-soluble ^125I on a gamma counter (Hidex).
In order to determine if a given molecule or molecular element is potentially valuable as a ubiquitination recognition element the assay described above is run with [^125I]-lysozyme or other labeled protein substrates in the presence of potential ubiquitination recognition elements.
The results at the 2 hour time point were 12,475 cpm for no treatment, 6,486 cpm for the 2 mM Arg-εAhx-Cys treatment and 3,592 cpm for the 5 mM Phe-εAhx-Cys treatment.

[2] = system: E2 ubiquitination reaction; settings: patent application GB 2,320,570; cited from earlier work

Molecule | effect on lysozyme degradation in the reticulocyte lysate [1] | lysozyme degradation, result at the 2 hour time point ([1]; 2 mM treatment) | lysozyme degradation, result at the 2 hour time point ([1]; 5 mM treatment) | inhibition of an E2 ubiquitination reaction [2]
Arg-εAhx-Cys (Arg-[Ahx]-Cys) [ubiquitination recognition element, Type I recognition with caproic acid linker and C-terminal Cys] | inhibition of the lysozyme degradation | 6,486 cpm |  | 
Phe-εAhx-Cys (Phe-[Ahx]-Cys) [ubiquitination recognition element, Type II recognition with caproic acid linker and C-terminal Cys] | inhibition of the lysozyme degradation |  | 3,592 cpm | 
O=S(=O)(O)c1cc(Nc2nc(Cl)nc(Nc3ccc(Cl)c(Nc4nc(Cl)nc(Nc5cc(S(=O)(=O)O)cc6cc(S(=O)(=O)O)c(N=Nc7ccc8ccccc8c7S(=O)(=O)O)c(O)c56)n4)c3)n2)c2c(O)c(N=Nc3ccc4ccccc4c3S(=O)(=O)O)c(S(=O)(=O)O)cc2c1 [compound Z, 1-chloro-2,4-bis{4-[2-chloro-6-(5-(2,7-disulfo-4-hydroxy-3-(2-(1-sulfonaphthyl)azo)naphthyl)amino)-1,3,5-triazinyl]amino}benzene] |  |  |  | inhibited an E2 ubiquitination reaction
